Laboratory results published in article doi:10.1101/625897v2 (biorxiv, 2019).

Assays:
Assay in all cases: inside-out patch clamp, Cl- current stimulation
ANO1 (TMEM16A; mTMEM16A) [1] = molecular target: T1, ANO1 (TMEM16A; mTMEM16A) (Mus musculus, UniProt Q8BHY3); format: biochemical; conditions: +100 mV, 270 nM Ca2+
T1 sequence (Q8BHY3 1-960): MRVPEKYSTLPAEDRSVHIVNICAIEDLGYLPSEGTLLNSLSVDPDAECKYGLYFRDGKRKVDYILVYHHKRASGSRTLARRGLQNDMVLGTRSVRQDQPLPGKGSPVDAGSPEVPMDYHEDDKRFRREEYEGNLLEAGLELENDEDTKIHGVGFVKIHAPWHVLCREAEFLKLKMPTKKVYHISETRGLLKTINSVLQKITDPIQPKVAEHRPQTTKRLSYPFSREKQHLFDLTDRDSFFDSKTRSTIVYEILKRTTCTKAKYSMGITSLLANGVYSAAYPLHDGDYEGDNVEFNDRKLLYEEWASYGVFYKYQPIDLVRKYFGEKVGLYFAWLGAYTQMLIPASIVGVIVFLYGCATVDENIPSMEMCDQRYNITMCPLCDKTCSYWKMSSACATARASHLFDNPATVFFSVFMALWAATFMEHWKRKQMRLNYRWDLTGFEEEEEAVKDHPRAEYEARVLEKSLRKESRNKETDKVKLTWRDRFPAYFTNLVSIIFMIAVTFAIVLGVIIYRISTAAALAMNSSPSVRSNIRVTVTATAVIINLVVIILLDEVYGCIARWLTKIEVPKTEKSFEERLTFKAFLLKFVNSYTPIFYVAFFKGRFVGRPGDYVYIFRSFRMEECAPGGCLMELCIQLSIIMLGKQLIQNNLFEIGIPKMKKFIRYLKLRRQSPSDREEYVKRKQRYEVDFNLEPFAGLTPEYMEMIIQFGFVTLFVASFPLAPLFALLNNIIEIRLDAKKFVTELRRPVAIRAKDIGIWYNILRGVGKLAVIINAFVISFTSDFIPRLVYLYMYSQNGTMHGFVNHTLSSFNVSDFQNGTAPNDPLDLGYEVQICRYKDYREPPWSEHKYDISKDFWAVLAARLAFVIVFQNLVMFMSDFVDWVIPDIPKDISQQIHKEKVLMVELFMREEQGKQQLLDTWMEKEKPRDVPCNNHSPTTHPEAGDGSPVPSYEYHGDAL

ANO1 (TMEM16A; mTMEM16A) [2] = molecular target: T1, ANO1 (TMEM16A; mTMEM16A); format: cell-based
ANO1 (TMEM16A; mTMEM16A) [3] = molecular target: T1, ANO1 (TMEM16A; mTMEM16A); format: biochemical; conditions: +100 mV, 270 nM Ca2+; wild-type reference of the mutant set

% current increase at 10 μM (ANO1 (TMEM16A; mTMEM16A) [1]) [%]	EC50 (ANO1 (TMEM16A; mTMEM16A) [2]) [µM]	ΔIPIP2 (% current increase) at 10 μM (ANO1 (TMEM16A; mTMEM16A) [3]) [%]	Compound
31 ± 12			CCCCCCCC(=O)OC[C@H](COP(=O)(O)O[C@H]1[C@H](O)[C@@H](OP(=O)(O)O)[C@H](OP(=O)(O)O)[C@@H](OP(=O)(O)O)[C@H]1O)OC(=O)CCCCCCC [diC8-PI(3,4,5)P3]
	1.24	89.9 ± 16.8	CCCCCCCC(=O)OC[C@H](COP(=O)(O)O[C@@H]1[C@H](O)[C@H](O)[C@@H](OP(=O)(O)O)[C@H](OP(=O)(O)O)[C@H]1O)OC(=O)CCCCCCC [diC8-PI(4,5)P2]
